Target: T1, CfGRP94 (canine GRP94 73–754Δ41) (Canis lupus, UniProt P41148, DEL287-327, form not given)
T1 construct: gene HSP90B1
Conditions: geldanamycin-sensitive activity; 25 mM HEPES pH 7.5, 5 mM MgCl2, 400 mM KCl, 0.03% Tween 20, 10% glycerol
Excerpt: NADH-coupled ATPase assay (pyruvate kinase / lactate dehydrogenase) on CfGRP94 (canine GRP94 73–754Δ41)

T1 sequence (P41148 73-286, stated change not applied): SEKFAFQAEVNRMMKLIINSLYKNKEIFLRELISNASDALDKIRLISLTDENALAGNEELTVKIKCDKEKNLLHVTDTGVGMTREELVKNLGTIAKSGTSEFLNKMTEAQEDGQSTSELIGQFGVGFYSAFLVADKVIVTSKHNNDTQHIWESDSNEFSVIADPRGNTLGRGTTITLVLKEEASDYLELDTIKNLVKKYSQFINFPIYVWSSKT
T1 sequence (P41148 328-754, stated change not applied): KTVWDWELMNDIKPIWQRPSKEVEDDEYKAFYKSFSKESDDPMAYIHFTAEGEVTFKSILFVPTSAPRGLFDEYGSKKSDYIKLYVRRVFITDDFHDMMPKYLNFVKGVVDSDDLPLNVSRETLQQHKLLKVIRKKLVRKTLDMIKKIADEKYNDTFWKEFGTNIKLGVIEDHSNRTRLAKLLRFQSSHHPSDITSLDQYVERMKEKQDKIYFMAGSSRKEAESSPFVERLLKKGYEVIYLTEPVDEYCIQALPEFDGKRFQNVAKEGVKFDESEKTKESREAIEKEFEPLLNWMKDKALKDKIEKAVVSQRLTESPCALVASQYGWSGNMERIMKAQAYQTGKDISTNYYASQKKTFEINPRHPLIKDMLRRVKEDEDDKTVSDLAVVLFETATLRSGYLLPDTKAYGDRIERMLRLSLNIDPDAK

Km: 65 ± 13 µM
SMILES: Nc1ncnc2c1ncn2[C@@H]1O[C@H](COP(=O)(O)OP(=O)(O)OP(=O)(O)O)[C@@H](O)[C@H]1O [ATP]

Source: article PMC4265155, “A highly charged region in the middle domain of plant endoplasmic reticulum (ER)-localized heat-shock protein 90 is required for resistance to tunicamycin or high calcium-induced ER stresses” (Journal of Experimental Botany, 2014)
